Measured values reported in US20230330089A1, “COVID PREVENTION AND TREATMENT USING AN INTEGRIN INHIBITOR” (priority 2022, published 2023).

Legend:
[1] = system: VsVg positive control lentivirus; type: cell-based; conditions: HSAE cells pre-treated with 20 nM to 1 μM for 2 hours; 24 hour infection
TGF-β signaling = conditions: breast cancer cells; cited from earlier work
[2] = Phase I, solid tumors; cited from earlier work
ACE2 = conditions: cited from earlier work
SARS-CoV-2 pseudovirus = conditions: cited from earlier work

| SMILES | effect on VsVg positive control infection [1] | effect on TGF-β signaling (TGF-β signaling) | toxicity profile in patients [2] | cellular expression of ACE2 (ACE2) | pseudovirus infection of multiple human cell types (SARS-CoV-2 pseudovirus) |
| --- | --- | --- | --- | --- | --- |
| COc1ccc(S(=O)(=O)N[C@@H](CNc2nc(C)nc(N3CCC(c4ccc5c(n4)NCCC5)CC3)c2C)C(=O)O)cc1 [GLPG-0187] | no effect of the inhibitor was observed | decreased TGF-β signaling | favorable toxicity profile |  |  |
| CNS(=O)(=O)Nc1nccc(Cc2c(C)c3ccc(Oc4ncccn4)cc3oc2=O)c1F [VS-6766] |  |  |  | reduce cellular expression of ACE2 | inhibit pseudovirus infection |
